Laboratory results taken from patent US20090325156A1, “MATERIALS AND METHODS FOR ABCB1 POLYMORPHIC VARIANT SCREENING, DIAGNOSIS, AND TREATMENT” (Government of the United States of America, as Represented …, priority 2005, published 2009).
Where two headings read alike, the source gives them in different places.

Legend:
[1] = tested on: patients with T-cell lymphoma; assay: Baseline corrected QTc interval (ΔQTc) on ECG after FK228 (romidepsin) treatment, by ABCB1 genotype; assay type: in vivo, human
Method: Complete blood cell counts with differential are obtained immediately prior to FK228 administration and on days 2, 9, and 16 to evaluate FK228-related myelosuppression. Multiple surface electrocardiograms (ECGs) are obtained immediately before FK228 administration, and at 4 hours after the start of FK228 administration, to evaluate the ability of FK228 to delay cardiac repolarization. This effect is manifested on the ECG as prolongation of the QT interval. The QT interval is transformed into the heart-rate independent corrected value known as the QTc interval. Prolongation of the QTc interval is the electrocardiographic finding associated with increased susceptibility to the development of cardiac arrythmias, including ventricular arrhythmias such as Torsade de Pointes. Because measurement of the baseline value is a factor that critically influences the observed variability in the mean QTc interval, values are computed as the mean of multiple ECGs to enhance the precision of the measurement. This computation is performed by collecting drug-free ECGs on three or more different days. The on-study time point for obtaining an ECG are selected to coincide with the maximum plasma concentration of FK228, as recommended in the preliminary FDA concept paper: The Clinical Evaluation Of Qt/Qtc Interval Prolongation And Proarrhythmic Potential For Non-Antiarrhythmic Drugs (Nov. 15, 2002) available at: http://www.fda.gov/ohrms/dockets/ac/03/briefing/pubs %5Cprelim.pdf.
Relationships between various exposure measures, for example, plasma AUC, and hematological and cardiac toxicity are evaluated by sigmoid maximum-effect models. […] Hematological pharmacodynamics are evaluated by analysis of the absolute nadir values of platelet counts or the relative thrombocytopenia, that is, the percent decrease in platelet count. Data are fitted to a sigmoid maximum-effect model based on the modified Hill equation, as follows: E=E0+Emax×[(KP^γ)/(KP^γ+KP50^γ)]. In this equation, E0 is the minimum reduction possible, Emax is the maximum response (fixed to a value of 100), KP is the pharmacokinetic parameter of interest, KP50 the value of the pharmacokinetic parameter predicted to result in half of the maximum response, and γ is the Hill constant, which describes the sigmoidicity of the curve. Models are evaluated for goodness of fit by minimization of sums of the squared residuals and by reduction of the estimated coefficient of variation for fitted parameters. Significance of the relationships are assessed by construction of contingency tables with subsequent chi-squared analysis.
All data are reported as median values with range, unless specified otherwise. Interindividual pharmacokinetic variability is calculated as the coefficient of variation, and expressed as a percentage. Genotype-frequency analysis of Hardy-Weinberg equilibrium is carried out using Clump version 1.9. The linkage between each pair of SNPs is determined in terms of the classical statistic D′. The absolute value for D′ (|D′|) of 1 denotes complete linkage disequilibrium, while a value of 0 denotes complete linkage equilibrium. The effects of the variant genotypes on ΔQTc, relative thrombocytopenia, dose-normalized AUC, apparent oral clearance, half-life, volume of distribution at steady-state are evaluated statistically with the nonparametric Kruskal-Wallis test. A post-hoc distribution-free multiple comparison procedure is performed using the Dunn test with Bonferroni correction to test pairs of median observations. All statistical analyses are performed using the NCSS software program (version 2001; NCSS, Kaysville, Utah). The a priori level of significance is set at 0.05.

[2] = tested on: patients with T-cell lymphoma; assay: Hematological toxicity: percentage decrease in platelet count versus FK228 AUC (sigmoid maximum effect model); assay type: in vivo, human; conditions: P<0.001, FIG. 1
Method: Complete blood cell counts with differential are obtained immediately prior to FK228 administration and on days 2, 9, and 16 to evaluate FK228-related myelosuppression. Multiple surface electrocardiograms (ECGs) are obtained immediately before FK228 administration, and at 4 hours after the start of FK228 administration, to evaluate the ability of FK228 to delay cardiac repolarization. This effect is manifested on the ECG as prolongation of the QT interval. The QT interval is transformed into the heart-rate independent corrected value known as the QTc interval. […]
Relationships between various exposure measures, for example, plasma AUC, and hematological and cardiac toxicity are evaluated by sigmoid maximum-effect models. […] Hematological pharmacodynamics are evaluated by analysis of the absolute nadir values of platelet counts or the relative thrombocytopenia, that is, the percent decrease in platelet count. […] Models are evaluated for goodness of fit by minimization of sums of the squared residuals and by reduction of the estimated coefficient of variation for fitted parameters. Significance of the relationships are assessed by construction of contingency tables with subsequent chi-squared analysis.

clinical = conditions: human, plasma, intravenous; for Vd: Vss, volume of distribution at steady-state

Structure (SMILES): C/C=C1\NC(=O)[C@H]2CSSCC/C=C/[C@H](CC(=O)N[C@H](C(C)C)C(=O)N2)OC(=O)[C@H](C(C)C)NC1=O [FK228, (E)-(1S,4S,10S,21R)-7-[(Z)-ethylidene]-4,21-diisopropyl-2-oxa-12,13-dithia-5,8,20,23-tetraazabicyclo [8,7,6]-tricos-16-ene-3,6,19,22-pentanone]
- ΔQTc at four hours ([1]; Example 1, ABCB1 2677GA genotype, n=1): 17.8 ms
- ΔQTc at four hours, median ([1]; Example 1, ABCB1 2677GG genotype, n=10): 18.3 ms
- ΔQTc at four hours, median ([1]; Example 1, ABCB1 2677GT genotype, n=14): 16.5 ms
- ΔQTc at four hours, median ([1]; Example 1, ABCB1 2677T/T genotype, n=4): -5 ms
- ΔQTc at four hours, median ([1]; Example 1, carriers of the heterozygote diplotype (2677/3435), n=7): 11.3 ms
- ΔQTc at four hours, median ([1]; Example 1, carriers of the homozygote diplotype (2677/3435), n=19): 18.5 ms
- ΔQTc at four hours, median ([1]; Example 1, homozygous for the ABCB1 2677TT/3435TT diplotype, n=3): -5.0 ms
- ΔQTc at 4 hours, median ([1]; group 1, 0 reference alleles at both ABCB1 2677G>T/A and 3435C>T loci, N=4): -1 ms
- ΔQTc at 4 hours, median ([1]; group 1, no reference alleles at the ABCB1 2677G>T/A locus, N=6): -2.0 ms
- ΔQTc at 4 hours, median ([1]; group 1, one or more reference alleles at the ABCB1 2677G>T/A locus, N=32): 18.2 ms
- ΔQTc at 4 hours, median ([1]; group 1, single reference allele at either ABCB1 2677G>T/A or 3435C>T locus, N=6): 9.7 ms
- ΔQTc at 4 hours, median ([1]; group 1, two or more reference allele copy numbers at ABCB1 2677G>T/A and 3435C>T loci, N=28): 18.5 ms
- ΔQTc at 4 hours, median ([1]; group 2, 0 or 1 reference alleles at ABCB1 2677G>T/A, N=14): 4 ms
- ΔQTc at 4 hours, median ([1]; group 2, more than 1 reference allele at ABCB1 2677G>T/A, N=4): 24.5 ms
- association of AUC of FK228 with percentage decrease in platelet count [2]: weakly associated
- clearance (clinical; Clearance, All (N = 74), median): 238 mL/min
- clearance (clinical; Clearance, Group 1 (N = 45), median): 252 mL/min
- clearance (clinical; Clearance, Group 2 (N = 29), median): 232 mL/min
- clearance (clinical; FK228 clearance, Example 1, all 42 patients combined, 4-hour infusion 14 or 18 mg/m^2, mean ± standard deviation): 292 mL/min
- half-life (clinical; T1/2, half-life of the terminal phase, All (N = 74), median): 6 h
- half-life (clinical; T1/2, half-life of the terminal phase, Group 1 (N = 45), median): 6.8 h
- half-life (clinical; T1/2, half-life of the terminal phase, Group 2 (N = 29), median): 3.8 h
- Vd (clinical; All (N = 74), median): 93.6 L
- Vd (clinical; Group 1 (N = 45), median): 129 L
- Vd (clinical; Group 2 (N = 29), median): 64.9 L
- half-life (clinical; terminal half-life, Example 1, all 42 patients combined, 4-hour infusion 14 or 18 mg/m^2, mean ± standard deviation): 7.23 ± 3 h
- interindividual variability in drug clearance, percent coefficient of variation (Example 1, 42 patients): approximately 72%
- interindividual variability in drug clearance, percent coefficient of variation (Example 2): approximately 72%
